These results are taken from patent US20250002473A1, “QUINOXALINE DERIVED SULFONAMIDES WITH EGFR DEGRADATION ACTIVITIES AND THEIR USES THEREOF” (Accutar Biotechnology Inc., priority 2023, published 2025).

Holding throughout (type): cell-based
Experiment [1] deals with BaF3_DTC (EGFR_Exon19del/T790M/C797S). Briefly: EGFR degradation assay (western blot), BaF3_DTC cells. Particulars: BaF3_DTC cells (EGFR_Exon19del/T790M/C797S), compounds 24 h, western blot; read-out: BaF3_DTC DC50. As for the experimental part:
(§1) A431 (EGFR_WT), NCl-H2073 (EGFR_WT), NCl-H292 (EGFR_WT), BaF3_YVAM (Her2_A775insYVAM), BaF3_SVD (EGFR_D770insSVD), BaF3_ASV (EGFR_A776inASV), or BaF3_DTC (EGFR_Exon19del/T790M/C797S) cells were seeded in a 24-well plate at a density of 4×10^5 cells per well for EGFR WT cells and 8× cells per well for EGFR or Her2 mutant cells, and the plates were incubated overnight. The cells were treated with the desired compounds for 24 h. The culture medium was removed, and 100 μL of RIPA buffer (Beyotime, P0013B) containing 1% Protease Inhibitor Cocktail (Bimake, B14001), 1% Phosphatase Inhibitor Cocktail 2 (Sigma, P5726), and 1% Phosphatase Inhibitor Cocktail 3 (Sigma, P0044) were added to lyse the cells. Then, the cell lysates were transferred to 1.5 mL microcentrifuge tubes and centrifuged at 12,000 rpm and 4° C. for 30 min. The supernatants were transferred into new tubes, and the protein concentration was determined using the BCA protein quantification method. All samples were diluted to the same concentration using RIPA buffer, loading buffer was added, samples were denatured, and 15 μg of protein per lane was loaded onto a SurePAGE 4-20% Bis-Tris gel. Samples were separated via electrophoresis in MOPS running buffer at 180 V for 100 min. Then, proteins were transferred onto PVDF membranes using the MiniBlot™ Electrophoretic Transfer Cell Device (Beyotime, E6050). The membrane was blocked using block buffer (LI-COR 927-60001) to prevent non-specific binding. The membrane was incubated with primary antibodies (1:500 dilution, EGFR-CST4405, 1:2000 dilution, Tubulin-ABclonal #AC021) at 4° C. overnight. The membrane was washed three times with 1× TBST buffer for 15 min each. The membrane was incubated with secondary antibodies IRDye 680RD Goat anti-Rabbit IgG Secondary Antibody (1:2000 dilution, LI-COR 926-68071) and IRDye 800CW Goat anti-Mouse IgG Secondary Antibody (1:2000 dilution, LI-COR 926-32210). Finally, the membrane was washed again with 1× TBST buffer 3 times. Fluorescence was detected using the Odyssey CLx Imaging System, and the data were analyzed with Empiria Studio Software and GraphPad Prism 9. Table 4 and Table 5 list the degradation results, where the degradation potency is represented by DC50, the concentration of compounds to cause the degradation of 50% of the corresponding proteins. FIGS. 45-49 show western blots illustrating the EGFR degradative activity of exemplary Compound of the present disclosure and a comparator Compound A in different cell lines 24 h after administration. The Compound referred herein as Compound A is disclosed in WO 2022/171123 A1 (see, compound 133, page 46; published Aug. 18, 2022). WO 2022/171123 A1 discloses phosphine oxide derived molecules with EGFR degradation activity.

The subject of experiment [2] is A431. The experiment in a line: Cell growth inhibition assay (CellTiter-Glo), A431. As to conditions: Homo sapiens, A-431, 72 h, Table 6; A431 cells, three days, CellTiter-Glo; read-out: A431 GI50. Here is the method: (§2) Cells were seeded in a 96-well plate (Corning 3610) with 90 μL of culture medium per well, and plates were incubated at 37° C. overnight. A 1,000× DMSO stock solution of the desired compound was prepared the following day. A compound dilution plate was prepared by diluting the stock solution 1:100 in the corresponding cell culture medium, 10 μL of the diluted compound solution was added to each 96-well plate well containing the seeded cells. […] The content of the wells was mixed by shaking continuously for 10 min, and luminescence was measured using Envision (PerkinElmer). The data were analyzed with GraphPad Prism 9 (see FIG. 50).
(§3) Table 6, Table 7, and Table 8 list the cell growth inhibition results, where Gls0 represents the compound concentration to cause 50% cell growth inhibition in comparison with DMSO.
Background: Cellular ATP, detected with luciferase, serves as a proxy for viable cell number.

For experiment [3], the target named is T1, BaF3_ASV (EGFR_A776inASV) (Homo sapiens, UniProt P00533, DUP767-769).
T1 construct: expressed in transfected cells; host or cells: Ba/F3 (engineered)
The experiment in a line: EGFR degradation assay (western blot), BaF3_ASV cells. As to conditions: BaF3_ASV cells, compounds 24 h, western blot; read-out: BaF3_ASV DC50. Here is the method: as §1

In experiment [4] the test system is BaF3_ASV. Briefly: Cell growth inhibition assay (CellTiter-Glo), BaF3_ASV. As to conditions: 72 h; Table 6; BaF3_ASV cells, three days, CellTiter-Glo; read-out: BaF3_ASV GI50. Here is the method:
as §2, §3

The test system of experiment [5] is BaF3_DTC. Briefly: Cell growth inhibition assay (CellTiter-Glo), BaF3_DTC. Particulars: 72 h; Table 6; BaF3_DTC cells, three days, CellTiter-Glo; read-out: BaF3_DTC GI50. Here is the method: as §2, §3

T1 sequence (P00533 with tags, fused parts or gaps DUP767-769): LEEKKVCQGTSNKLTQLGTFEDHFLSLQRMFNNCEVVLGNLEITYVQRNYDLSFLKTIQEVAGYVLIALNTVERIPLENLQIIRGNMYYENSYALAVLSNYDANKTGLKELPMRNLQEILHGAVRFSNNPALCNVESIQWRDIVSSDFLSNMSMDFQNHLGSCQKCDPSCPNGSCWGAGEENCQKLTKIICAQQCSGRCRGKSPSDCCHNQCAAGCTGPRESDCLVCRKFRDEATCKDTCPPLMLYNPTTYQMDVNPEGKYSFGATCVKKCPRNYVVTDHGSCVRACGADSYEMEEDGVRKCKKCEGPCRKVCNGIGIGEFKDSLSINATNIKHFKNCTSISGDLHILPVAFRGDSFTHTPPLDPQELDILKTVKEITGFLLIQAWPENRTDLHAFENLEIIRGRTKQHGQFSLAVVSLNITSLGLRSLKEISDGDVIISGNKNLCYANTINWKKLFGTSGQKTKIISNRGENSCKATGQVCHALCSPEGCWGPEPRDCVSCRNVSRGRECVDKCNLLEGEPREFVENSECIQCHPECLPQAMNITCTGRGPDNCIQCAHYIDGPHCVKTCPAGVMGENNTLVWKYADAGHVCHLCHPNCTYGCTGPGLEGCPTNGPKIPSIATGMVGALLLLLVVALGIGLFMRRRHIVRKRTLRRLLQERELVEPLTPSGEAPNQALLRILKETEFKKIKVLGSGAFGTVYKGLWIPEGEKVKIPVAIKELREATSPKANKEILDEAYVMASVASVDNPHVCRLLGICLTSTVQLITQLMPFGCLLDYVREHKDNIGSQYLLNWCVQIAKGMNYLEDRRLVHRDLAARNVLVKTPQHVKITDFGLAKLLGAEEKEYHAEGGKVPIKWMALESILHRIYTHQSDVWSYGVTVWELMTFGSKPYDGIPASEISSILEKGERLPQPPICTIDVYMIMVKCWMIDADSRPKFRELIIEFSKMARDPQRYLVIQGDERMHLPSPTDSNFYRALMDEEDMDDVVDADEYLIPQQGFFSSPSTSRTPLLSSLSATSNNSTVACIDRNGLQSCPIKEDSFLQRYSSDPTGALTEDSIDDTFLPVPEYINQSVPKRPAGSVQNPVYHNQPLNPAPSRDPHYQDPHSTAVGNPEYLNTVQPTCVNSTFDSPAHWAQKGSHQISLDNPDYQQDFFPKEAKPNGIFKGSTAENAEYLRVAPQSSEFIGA

Take `COc1cc(N2CCC(N3CCN(CC4CCN(c5ccc6c(c5)CN(C5CCC(=O)NC5=O)C6=O)CC4)CC3)CC2)c(-c2cnn(C)c2)cc1Nc1ncc(Br)c(Nc2ccc3nccnc3c2NS(C)(=O)=O)n1` (stereo not shown) [Compound 32, N-(6-((5-bromo-2-((4-(4-(4-((1-(2-(2,6-dioxopiperidin-3-yl)-1-oxoisoindolin-5-yl)piperidin-4-yl)methyl)piperazin-1-yl)piperidin-1-yl)-2-methoxy-5-(1-methyl-1H-pyrazol-4-yl)phenyl)amino)pyrimidin-4-yl)amino)quinoxalin-5-yl)methanesulfonamide]: the DC50 in experiment [1] worked out at 0.0031 µM; in experiment [3], 0.026 µM. The GI50 in experiment [2] stood at 0.214 µM; in experiment [4], 0.0356 µM; in experiment [5], 0.0109 µM.

For the molecule `CCc1cc(Nc2ncc(Br)c(Nc3ccc4nccnc4c3NS(C)(=O)=O)n2)c(OC)cc1N1CCC(N2CCC(CN3CCN(c4ccc5c(c4)CN([C@H]4CCC(=O)NC4=O)C5=O)CC3)CC2)CC1` [Compound 35, (S)-N-(6-((5-bromo-2-((4-(4-((4-(2-(2,6-dioxopiperidin-3-yl)-1-oxoisoindolin-5-yl)piperazin-1-yl)methyl) [1,4′-bipiperidin]-1′-yl)-5-ethyl-2-methoxyphenyl)amino)pyrimidin-4-yl)amino)quinoxalin-5-yl)methanesulfonamide], the DC50 was found to be 0.066 µM in experiment [1] and 0.0865 µM in experiment [3]. Further, the 50% growth inhibitory concentration (GI50) in experiment [2] was over 1 µM; in experiment [4] it was 0.126 µM; in experiment [5], 0.0137 µM.

`CCc1cc(Nc2ncc(Br)c(Nc3ccc4nccnc4c3NS(C)(=O)=O)n2)c(OC)cc1N1CCC(N2CCN(CCN3CCN(c4ccc5c(c4)CN([C@H]4CCC(=O)NC4=O)C5=O)CC3)CC2)CC1` [Compound 39, (S)-N-(6-((5-bromo-2-((4-(4-(4-(2-(4-(2-(2,6-dioxopiperidin-3-yl)-1-oxoisoindolin-5-yl)piperazin-1-yl)ethyl)piperazin-1-yl)piperidin-1-yl)-5-ethyl-2-methoxyphenyl)amino)pyrimidin-4-yl)amino)quinoxalin-5-yl)methanesulfonamide]: the DC50 in experiment [1] amounted to 0.00313 µM. Moreover, the GI50 in experiment [2] is 0.441 µM; in experiment [4] it was 0.0734 µM; in experiment [5] it was 0.0111 µM.

For the molecule `CCc1cc(Nc2ncc(Br)c(Nc3ccc4nccnc4c3NS(C)(=O)=O)n2)c(OC)cc1N1CCC(CN2CCN(c3ccc4c(c3)CN([C@H]3CCC(=O)NC3=O)C4=O)CC2)CC1` [Compound 43, (S)-N-(6-((5-bromo-2-((4-(4-((4-(2-(2,6-dioxopiperidin-3-yl)-1-oxoisoindolin-5-yl)piperazin-1-yl)methyl)piperidin-1-yl)-5-ethyl-2-methoxyphenyl)amino)pyrimidin-4-yl)amino)quinoxalin-5-yl)methanesulfonamide], in experiment [1], the DC50 was 0.000323 µM. Moreover, the GI50 in experiment [2] is over 1 µM; in experiment [4], 0.119 µM; in experiment [5], 0.015 µM.

Regarding `CCc1cc(Nc2ncc(Br)c(Nc3ccc4nccnc4c3NS(C)(=O)=O)n2)c(OC)cc1N1CCC(N2CCN(CC3CC4(CCN(c5ccc6c(c5)CN(C5CCC(=O)NC5=O)C6=O)CC4)C3)CC2)CC1` (stereo not shown) [Compound 47, N-(6-((5-bromo-2-((4-(4-(4-((7-(2-(2,6-dioxopiperidin-3-yl)-1-oxoisoindolin-5-yl)-7-azaspiro[3.5]nonan-2-yl)methyl)piperazin-1-yl)piperidin-1-yl)-5-ethyl-2-methoxyphenyl)amino)pyrimidin-4-yl)amino)quinoxalin-5-yl)methanesulfonamide], the DC50 in experiment [1] turned out to be 0.0145 µM. Further, the 50% growth inhibitory concentration (GI50) is over 1 µM in experiment [2], 0.0475 µM in experiment [4] and 0.0121 µM in experiment [5].

A word on the DC50: it is the concentration at which degradation of the target reaches its halfway point. The term GI50 denotes the concentration giving 50% growth inhibition.
